Test [1] concerns Ileum. Briefly: Inhibition of acetylcholine-induced contraction in guinea pig ileum at 0.28 to 2.8 uM preincubated for 5 mins before acetylcholine challenge. It is filed as functional, Cavia porcellus. Also on record: scale not given: the % may be the effect or the level left.
For test [2], the system named is Ileum. Briefly: Inhibition of acetylcholine-induced contraction in guinea pig ileum preincubated for 5 mins before acetylcholine challenge. It is filed as functional, tissue-based, Cavia porcellus.

Each structure is given as a SMILES string.

In the test with Ileum [1], `C[N+]1([O-])CCc2cc3c(cc2C(=O)Cc2ccc4c(c2C1)OCO4)OCO3` (stereo not drawn) had an Activity of 20%.

As to `CN1[C@@H]2CC[C@H]1C[C@@H](OC(=O)C(CO)c1ccccc1)C2` (stereo partly drawn) [ATROPINE], the Kb in the test on Ileum [2] (Cavia porcellus, Ileum, read-out: pA2 (converted)) is 2.04 nM.

On to `COc1ccc(Cc2nccc3cc(OC)c(OC)cc23)cc1OC` [PAPAVERINE], for which the pD2 with Ileum [2] is listed as 5.08.

(Values after ChEMBL document CHEMBL1151116, “In vitro study of the anticholinergic and antihistaminic activities of protopine and some derivatives” (J Nat Prod, 1988).)
